Key:
Assay in all cases: pIC50, kinobeads binding competition
UniProt Q9NYL2 = biological target: UniProt Q9NYL2
Method in brief: (§1)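 pIC50 was obtained by fitting fold changes against vehicle to logistic dose-response curves with the R drc package, using biological duplicates. Kinobeads-bound proteins were digested and measured by TMT10 LC-MS/MS. Before this, either living Jurkat cells received nine compound concentrations (top 30 μM, 1:4 steps) for 60 min at 37 °C prior to lysis, or Jurkat lysate or a 1:1:1:1 HEK293/K-562/HepG2/placenta lysate mix received nine concentrations (top 30 μM, 1:5 steps) for 60 min at 4 °C.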

MAST4 = MAST4 (UniProt O15021)
Sequence of MAST4 (O15021 whole entry): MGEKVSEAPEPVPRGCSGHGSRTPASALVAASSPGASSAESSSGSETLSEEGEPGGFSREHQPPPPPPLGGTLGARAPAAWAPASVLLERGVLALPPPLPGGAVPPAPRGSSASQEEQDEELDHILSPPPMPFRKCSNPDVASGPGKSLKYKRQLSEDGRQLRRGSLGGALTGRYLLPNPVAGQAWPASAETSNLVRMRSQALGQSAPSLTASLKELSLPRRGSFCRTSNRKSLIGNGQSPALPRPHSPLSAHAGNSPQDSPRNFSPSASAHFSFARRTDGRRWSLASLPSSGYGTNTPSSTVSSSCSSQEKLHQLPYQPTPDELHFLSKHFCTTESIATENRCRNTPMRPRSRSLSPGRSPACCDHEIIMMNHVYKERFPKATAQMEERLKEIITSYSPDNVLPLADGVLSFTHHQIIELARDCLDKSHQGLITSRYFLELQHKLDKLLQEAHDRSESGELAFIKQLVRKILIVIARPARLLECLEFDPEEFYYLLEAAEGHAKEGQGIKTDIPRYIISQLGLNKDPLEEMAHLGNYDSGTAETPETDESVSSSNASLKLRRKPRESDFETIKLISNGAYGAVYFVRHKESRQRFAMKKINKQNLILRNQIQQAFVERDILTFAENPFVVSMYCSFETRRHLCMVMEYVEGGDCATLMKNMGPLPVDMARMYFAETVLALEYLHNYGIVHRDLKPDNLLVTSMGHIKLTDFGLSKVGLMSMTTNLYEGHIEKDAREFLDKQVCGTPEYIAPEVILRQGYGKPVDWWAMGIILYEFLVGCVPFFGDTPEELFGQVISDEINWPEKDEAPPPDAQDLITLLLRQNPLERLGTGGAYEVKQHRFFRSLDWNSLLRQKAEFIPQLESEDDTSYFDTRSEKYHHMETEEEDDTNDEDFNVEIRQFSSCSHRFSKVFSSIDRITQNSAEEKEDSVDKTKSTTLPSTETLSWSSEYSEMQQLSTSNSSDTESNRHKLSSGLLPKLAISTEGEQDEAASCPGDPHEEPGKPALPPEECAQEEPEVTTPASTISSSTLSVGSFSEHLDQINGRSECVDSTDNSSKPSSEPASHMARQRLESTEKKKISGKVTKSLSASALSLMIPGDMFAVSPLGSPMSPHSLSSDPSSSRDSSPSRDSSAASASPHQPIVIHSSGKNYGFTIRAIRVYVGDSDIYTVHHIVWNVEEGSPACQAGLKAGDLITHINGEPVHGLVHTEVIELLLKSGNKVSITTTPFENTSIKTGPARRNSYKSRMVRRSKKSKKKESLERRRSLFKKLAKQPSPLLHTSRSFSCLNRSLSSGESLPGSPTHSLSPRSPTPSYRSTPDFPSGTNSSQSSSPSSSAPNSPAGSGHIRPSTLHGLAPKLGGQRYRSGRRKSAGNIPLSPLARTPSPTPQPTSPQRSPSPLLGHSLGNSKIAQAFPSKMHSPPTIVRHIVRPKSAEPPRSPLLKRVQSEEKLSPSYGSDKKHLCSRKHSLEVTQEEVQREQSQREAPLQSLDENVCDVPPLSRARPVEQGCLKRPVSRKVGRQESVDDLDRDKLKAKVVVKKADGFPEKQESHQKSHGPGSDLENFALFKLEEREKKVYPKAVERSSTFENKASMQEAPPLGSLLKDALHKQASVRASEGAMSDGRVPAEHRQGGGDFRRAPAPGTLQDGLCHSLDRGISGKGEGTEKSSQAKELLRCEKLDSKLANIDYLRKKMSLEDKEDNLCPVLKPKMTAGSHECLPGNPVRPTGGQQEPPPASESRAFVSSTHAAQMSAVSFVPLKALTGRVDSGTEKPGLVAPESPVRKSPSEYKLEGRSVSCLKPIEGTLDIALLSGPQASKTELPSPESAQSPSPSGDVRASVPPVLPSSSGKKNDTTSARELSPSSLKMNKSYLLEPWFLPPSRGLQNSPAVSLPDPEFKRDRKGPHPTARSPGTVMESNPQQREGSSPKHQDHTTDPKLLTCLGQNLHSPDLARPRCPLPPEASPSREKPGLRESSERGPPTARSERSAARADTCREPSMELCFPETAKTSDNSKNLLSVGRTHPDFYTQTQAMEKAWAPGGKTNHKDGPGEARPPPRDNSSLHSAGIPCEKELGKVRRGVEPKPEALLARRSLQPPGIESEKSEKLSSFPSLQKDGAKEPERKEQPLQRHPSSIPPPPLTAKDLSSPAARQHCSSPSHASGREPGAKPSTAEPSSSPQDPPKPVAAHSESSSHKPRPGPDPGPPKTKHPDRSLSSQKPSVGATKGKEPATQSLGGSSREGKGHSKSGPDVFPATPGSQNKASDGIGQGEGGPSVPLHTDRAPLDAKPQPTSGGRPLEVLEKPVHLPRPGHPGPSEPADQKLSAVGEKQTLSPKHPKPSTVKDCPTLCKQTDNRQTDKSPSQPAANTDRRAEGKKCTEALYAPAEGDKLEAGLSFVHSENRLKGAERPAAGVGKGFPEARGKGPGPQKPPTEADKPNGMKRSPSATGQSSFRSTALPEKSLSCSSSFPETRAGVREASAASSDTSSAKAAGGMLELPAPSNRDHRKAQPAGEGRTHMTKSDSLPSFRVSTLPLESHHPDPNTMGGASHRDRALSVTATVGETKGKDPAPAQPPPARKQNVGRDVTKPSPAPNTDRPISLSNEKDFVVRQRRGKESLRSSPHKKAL
Method in brief: as §1

UniProt Q99759 = biological target: T1, UniProt Q99759
T1 sequence (whole entry): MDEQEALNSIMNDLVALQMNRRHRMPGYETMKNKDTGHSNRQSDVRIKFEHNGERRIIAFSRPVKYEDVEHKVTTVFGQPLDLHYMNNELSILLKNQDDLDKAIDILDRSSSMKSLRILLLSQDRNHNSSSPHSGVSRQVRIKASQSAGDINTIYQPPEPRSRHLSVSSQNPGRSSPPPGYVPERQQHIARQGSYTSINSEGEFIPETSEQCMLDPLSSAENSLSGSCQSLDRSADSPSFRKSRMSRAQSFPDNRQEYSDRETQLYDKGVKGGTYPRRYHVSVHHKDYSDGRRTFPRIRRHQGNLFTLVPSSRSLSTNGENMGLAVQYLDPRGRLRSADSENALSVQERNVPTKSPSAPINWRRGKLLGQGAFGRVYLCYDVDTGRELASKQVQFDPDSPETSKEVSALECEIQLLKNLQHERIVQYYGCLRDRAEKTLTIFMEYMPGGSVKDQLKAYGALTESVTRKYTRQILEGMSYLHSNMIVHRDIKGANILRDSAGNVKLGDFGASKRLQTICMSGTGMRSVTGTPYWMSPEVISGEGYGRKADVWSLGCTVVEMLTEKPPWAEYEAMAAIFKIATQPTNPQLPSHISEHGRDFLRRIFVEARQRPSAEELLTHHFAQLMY
Method in brief: as §1

CLK1 = CLK1 (UniProt P49759)
Method in brief: as §1

MAST3 = MAST3 (UniProt O60307)
Method in brief: as §1

UniProt Q16584 = biological target: UniProt Q16584
Method in brief: as §1

UniProt O75582 = biological target: UniProt O75582
Method in brief: as §1

UniProt Q07912 = biological target: UniProt Q07912
Sequence of UniProt Q07912 (Q07912 whole entry, looked up): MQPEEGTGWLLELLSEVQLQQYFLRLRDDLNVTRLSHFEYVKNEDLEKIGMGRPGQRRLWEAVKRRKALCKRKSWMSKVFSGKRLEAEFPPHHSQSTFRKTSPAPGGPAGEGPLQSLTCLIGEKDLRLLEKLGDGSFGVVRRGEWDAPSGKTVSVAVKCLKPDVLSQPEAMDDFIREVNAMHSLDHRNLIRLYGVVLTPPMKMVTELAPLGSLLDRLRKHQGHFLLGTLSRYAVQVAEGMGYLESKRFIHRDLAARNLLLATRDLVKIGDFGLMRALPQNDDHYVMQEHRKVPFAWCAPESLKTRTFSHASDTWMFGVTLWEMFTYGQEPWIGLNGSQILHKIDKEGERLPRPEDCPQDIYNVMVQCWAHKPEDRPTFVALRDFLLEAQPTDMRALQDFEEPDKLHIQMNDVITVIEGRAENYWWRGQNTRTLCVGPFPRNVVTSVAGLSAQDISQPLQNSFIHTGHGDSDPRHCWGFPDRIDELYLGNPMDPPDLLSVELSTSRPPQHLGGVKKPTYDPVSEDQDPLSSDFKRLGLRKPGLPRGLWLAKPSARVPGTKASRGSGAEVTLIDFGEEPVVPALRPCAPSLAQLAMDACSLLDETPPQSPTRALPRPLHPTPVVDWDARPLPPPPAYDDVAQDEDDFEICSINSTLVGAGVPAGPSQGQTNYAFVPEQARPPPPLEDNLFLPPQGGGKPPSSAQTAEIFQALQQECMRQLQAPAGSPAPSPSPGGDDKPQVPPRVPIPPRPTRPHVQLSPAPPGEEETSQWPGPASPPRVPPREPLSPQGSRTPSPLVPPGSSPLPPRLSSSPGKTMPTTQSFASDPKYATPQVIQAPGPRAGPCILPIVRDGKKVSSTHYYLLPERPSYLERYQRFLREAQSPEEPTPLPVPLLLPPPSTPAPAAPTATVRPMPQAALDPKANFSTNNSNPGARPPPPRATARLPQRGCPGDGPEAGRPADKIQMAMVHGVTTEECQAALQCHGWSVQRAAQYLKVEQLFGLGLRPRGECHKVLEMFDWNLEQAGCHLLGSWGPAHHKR
Method in brief: as §1

UniProt P27361 = biological target: UniProt P27361
Sequence of UniProt P27361 (P27361 whole entry): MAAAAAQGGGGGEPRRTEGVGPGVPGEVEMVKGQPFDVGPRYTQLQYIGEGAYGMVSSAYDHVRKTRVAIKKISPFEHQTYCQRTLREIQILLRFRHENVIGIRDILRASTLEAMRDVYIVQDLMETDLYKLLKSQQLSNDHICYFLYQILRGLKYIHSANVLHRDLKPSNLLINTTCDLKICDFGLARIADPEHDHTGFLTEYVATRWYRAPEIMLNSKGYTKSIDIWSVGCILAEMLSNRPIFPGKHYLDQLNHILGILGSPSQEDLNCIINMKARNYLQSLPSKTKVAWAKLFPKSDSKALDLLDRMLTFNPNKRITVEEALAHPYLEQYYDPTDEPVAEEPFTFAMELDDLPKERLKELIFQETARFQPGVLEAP
Method in brief: as §1

UniProt P50613 = biological target: UniProt P50613
Method in brief: as §1

UniProt P68400 = biological target: UniProt P68400
Sequence of UniProt P68400 (P68400 whole entry, looked up): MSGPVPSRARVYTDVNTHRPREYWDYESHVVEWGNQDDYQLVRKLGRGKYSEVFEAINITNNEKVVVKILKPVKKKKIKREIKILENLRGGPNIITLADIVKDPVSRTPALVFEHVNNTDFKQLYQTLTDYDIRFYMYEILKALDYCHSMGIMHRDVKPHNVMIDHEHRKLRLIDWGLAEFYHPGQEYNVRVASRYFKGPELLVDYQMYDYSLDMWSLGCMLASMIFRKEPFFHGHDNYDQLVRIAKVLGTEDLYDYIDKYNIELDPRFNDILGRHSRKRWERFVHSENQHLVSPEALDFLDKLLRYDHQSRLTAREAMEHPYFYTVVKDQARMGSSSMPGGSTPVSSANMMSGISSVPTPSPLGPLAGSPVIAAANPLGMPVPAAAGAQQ
Method in brief: as §1

UniProt Q9H0K1 = biological target: UniProt Q9H0K1
Method in brief: as §1

SYK = SYK (UniProt P43405)
Method in brief: as §1

GAK = biological target: T2, GAK (UniProt O14976)
T2 sequence (whole entry): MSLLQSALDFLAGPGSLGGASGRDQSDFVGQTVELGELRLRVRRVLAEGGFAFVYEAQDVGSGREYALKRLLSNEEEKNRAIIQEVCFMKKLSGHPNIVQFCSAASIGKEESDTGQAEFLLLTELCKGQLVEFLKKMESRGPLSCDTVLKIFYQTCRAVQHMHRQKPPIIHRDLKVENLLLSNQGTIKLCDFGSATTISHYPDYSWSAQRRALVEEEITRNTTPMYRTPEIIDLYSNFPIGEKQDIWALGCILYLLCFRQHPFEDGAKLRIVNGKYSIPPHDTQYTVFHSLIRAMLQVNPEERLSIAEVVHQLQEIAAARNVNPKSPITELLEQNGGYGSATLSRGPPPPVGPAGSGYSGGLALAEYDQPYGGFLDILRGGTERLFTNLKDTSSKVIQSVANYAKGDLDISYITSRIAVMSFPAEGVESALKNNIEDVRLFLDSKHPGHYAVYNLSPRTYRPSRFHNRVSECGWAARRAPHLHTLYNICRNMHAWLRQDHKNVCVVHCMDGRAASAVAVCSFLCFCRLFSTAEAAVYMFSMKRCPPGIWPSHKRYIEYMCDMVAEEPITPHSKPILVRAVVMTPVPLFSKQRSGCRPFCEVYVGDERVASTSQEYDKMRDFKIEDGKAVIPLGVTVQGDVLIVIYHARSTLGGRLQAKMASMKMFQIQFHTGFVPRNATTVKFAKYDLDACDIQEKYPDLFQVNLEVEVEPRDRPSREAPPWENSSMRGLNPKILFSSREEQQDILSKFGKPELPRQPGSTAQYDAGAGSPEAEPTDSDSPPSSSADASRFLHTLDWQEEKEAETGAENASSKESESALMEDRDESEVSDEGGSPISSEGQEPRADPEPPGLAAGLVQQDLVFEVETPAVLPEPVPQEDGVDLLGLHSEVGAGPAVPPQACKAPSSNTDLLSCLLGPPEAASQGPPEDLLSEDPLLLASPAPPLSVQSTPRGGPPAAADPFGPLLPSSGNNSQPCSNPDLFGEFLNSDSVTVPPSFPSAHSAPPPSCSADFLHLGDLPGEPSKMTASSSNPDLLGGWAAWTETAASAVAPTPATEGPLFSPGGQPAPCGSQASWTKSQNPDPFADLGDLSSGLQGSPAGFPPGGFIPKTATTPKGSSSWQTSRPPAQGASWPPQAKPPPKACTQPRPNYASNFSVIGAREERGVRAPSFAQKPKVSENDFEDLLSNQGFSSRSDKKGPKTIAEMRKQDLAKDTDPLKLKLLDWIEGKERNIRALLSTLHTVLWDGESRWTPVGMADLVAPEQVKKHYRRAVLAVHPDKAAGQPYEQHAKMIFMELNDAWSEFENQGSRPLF
Method in brief: as §1

UniProt Q9BUB5 = biological target: UniProt Q9BUB5
Method in brief: as §1

MARK1 = MARK1 (UniProt Q9P0L2); conditions: cell material: Lysate mix
Method in brief: as §1

UniProt Q9BQI3 = biological target: UniProt Q9BQI3
Sequence of UniProt Q9BQI3 (Q9BQI3 whole entry): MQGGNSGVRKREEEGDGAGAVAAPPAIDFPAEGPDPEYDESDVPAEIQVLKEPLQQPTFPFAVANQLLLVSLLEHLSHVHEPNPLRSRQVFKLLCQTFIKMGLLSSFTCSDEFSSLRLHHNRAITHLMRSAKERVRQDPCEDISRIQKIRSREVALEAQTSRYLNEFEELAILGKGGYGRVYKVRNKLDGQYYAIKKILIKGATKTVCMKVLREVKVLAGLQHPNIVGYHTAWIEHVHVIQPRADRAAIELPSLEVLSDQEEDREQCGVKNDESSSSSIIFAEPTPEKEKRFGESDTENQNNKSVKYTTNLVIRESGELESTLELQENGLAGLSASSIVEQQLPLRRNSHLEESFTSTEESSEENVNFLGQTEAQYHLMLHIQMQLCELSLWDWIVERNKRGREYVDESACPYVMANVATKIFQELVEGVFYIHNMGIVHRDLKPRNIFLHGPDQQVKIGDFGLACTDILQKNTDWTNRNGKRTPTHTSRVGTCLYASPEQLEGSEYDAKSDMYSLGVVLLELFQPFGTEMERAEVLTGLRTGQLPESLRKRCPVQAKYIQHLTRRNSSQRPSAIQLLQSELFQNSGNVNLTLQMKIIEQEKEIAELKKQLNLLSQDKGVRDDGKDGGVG
Method in brief: as §1

SMILES: CCNC(=O)c1cc(Nc2cc(C)[nH]n2)nc(N2CCN(Cc3ccc(S(=O)(=O)F)cc3)CC2)n1
- pIC50 (UniProt Q9NYL2; cell material: Lysate mix): < 4.52
- pIC50 (MAST4; cell material: Lysate mix): 6.4
- pIC50 (UniProt Q99759; cell material: Lysate mix): < 4.52
- pIC50 (CLK1; cell material: Lysate mix): < 4.52
- pIC50 (MAST3; cell material: Lysate mix): 6.39
- pIC50 (UniProt Q16584; cell material: Lysate mix): < 4.52
- pIC50 (UniProt O75582; cell material: Lysate mix): 4.83
- pIC50 (UniProt Q07912; cell material: Lysate mix): < 4.52
- pIC50 (UniProt P27361; cell material: Lysate mix): < 4.52
- pIC50 (UniProt P50613; cell material: Lysate mix): 5
- pIC50 (UniProt P68400; cell material: Lysate mix): 5.15
- pIC50 (UniProt Q9H0K1; cell material: Lysate mix): < 4.52
- pIC50 (SYK; cell material: Lysate mix): 5.57
- pIC50 (GAK; cell material: Lysate mix): < 4.52
- pIC50 (UniProt Q9BUB5; cell material: Lysate mix): < 4.52
- pIC50 (MARK1): < 4.52
- pIC50 (UniProt Q9BQI3; cell material: Lysate mix): < 4.52

SMILES: C#CCNC(=O)c1cc(Nc2cc(C3CC3)[nH]n2)nc(N2CCN(Cc3ccc(S(=O)(=O)F)cc3)CC2)n1
- pIC50 (UniProt Q9NYL2; cell material: Jurkat cells): 5.56
- pIC50 (UniProt Q9NYL2; cell material: Jurkat lysate): < 4.52
- pIC50 (UniProt Q9NYL2; cell material: Lysate mix): < 4.52
- pIC50 (MAST4; cell material: Jurkat lysate): 6.46
- pIC50 (MAST4; cell material: Lysate mix): 7
- pIC50 (UniProt Q99759; cell material: Jurkat cells): 5.8
- pIC50 (UniProt Q99759; cell material: Jurkat lysate): 4.72
- pIC50 (UniProt Q99759; cell material: Lysate mix): 5.16
- pIC50 (CLK1; cell material: Jurkat cells): 6.11
- pIC50 (CLK1; cell material: Jurkat lysate): 5.38
- pIC50 (CLK1; cell material: Lysate mix): 5.66
- pIC50 (MAST3; cell material: Jurkat cells): 6.54
- pIC50 (MAST3; cell material: Jurkat lysate): 6.27
- pIC50 (MAST3; cell material: Lysate mix): 6.56
- pIC50 (UniProt Q16584; cell material: Jurkat cells): 6.26
- pIC50 (UniProt Q16584; cell material: Jurkat lysate): 5.22
- pIC50 (UniProt Q16584; cell material: Lysate mix): 5.64
- pIC50 (UniProt O75582; cell material: Jurkat cells): 6
- pIC50 (UniProt O75582; cell material: Jurkat lysate): 4.7
- pIC50 (UniProt O75582; cell material: Lysate mix): 5.6
- pIC50 (UniProt Q07912; cell material: Jurkat cells): 5.16
- pIC50 (UniProt Q07912; cell material: Jurkat lysate): < 4.52
- pIC50 (UniProt Q07912; cell material: Lysate mix): < 4.52
- pIC50 (UniProt P27361; cell material: Jurkat cells): 5.73
- pIC50 (UniProt P27361; cell material: Jurkat lysate): < 4.52
- pIC50 (UniProt P50613; cell material: Jurkat cells): 6.47
- pIC50 (UniProt P50613; cell material: Jurkat lysate): 5.78
- pIC50 (UniProt P50613; cell material: Lysate mix): 6.35
- pIC50 (UniProt P68400; cell material: Jurkat cells): 5.62
- pIC50 (UniProt P68400; cell material: Jurkat lysate): < 4.52
- pIC50 (UniProt P68400; cell material: Lysate mix): 5.02
- pIC50 (UniProt Q9H0K1; cell material: Jurkat cells): 6.22
- pIC50 (UniProt Q9H0K1; cell material: Jurkat lysate): < 4.52
- pIC50 (UniProt Q9H0K1; cell material: Lysate mix): < 4.52
- pIC50 (SYK; cell material: Jurkat lysate): 5.64
- pIC50 (SYK; cell material: Lysate mix): 6.28
- pIC50 (GAK; cell material: Jurkat cells): < 4.52
- pIC50 (GAK; cell material: Jurkat lysate): < 4.52
- pIC50 (GAK; cell material: Lysate mix): < 4.52
- pIC50 (UniProt Q9BUB5; cell material: Jurkat cells): 5.31
- pIC50 (UniProt Q9BUB5; cell material: Jurkat lysate): < 4.52
- pIC50 (UniProt Q9BUB5; cell material: Lysate mix): < 4.52
- pIC50 (MARK1): < 4.52
- pIC50 (UniProt Q9BQI3; cell material: Jurkat cells): 5.34
- pIC50 (UniProt Q9BQI3; cell material: Jurkat lysate): < 4.52

SMILES: C#CCNC(=O)c1cc(Nc2cc(C)[nH]n2)nc(N2CCN(Cc3ccc(S(=O)(=O)F)cc3)CC2)n1
- pIC50 (UniProt Q9NYL2; cell material: Lysate mix): < 4.52
- pIC50 (MAST4; cell material: Lysate mix): 6.06
- pIC50 (UniProt Q99759; cell material: Lysate mix): < 4.52
- pIC50 (CLK1; cell material: Lysate mix): < 4.52
- pIC50 (MAST3; cell material: Lysate mix): 6.16
- pIC50 (UniProt Q16584; cell material: Lysate mix): < 4.52
- pIC50 (UniProt O75582; cell material: Lysate mix): 5.11
- pIC50 (UniProt Q07912; cell material: Lysate mix): < 4.52
- pIC50 (UniProt P27361; cell material: Lysate mix): < 4.52
- pIC50 (UniProt P50613; cell material: Lysate mix): 5.14
- pIC50 (UniProt P68400; cell material: Lysate mix): 4.89
- pIC50 (UniProt Q9H0K1; cell material: Lysate mix): < 4.52
- pIC50 (SYK; cell material: Lysate mix): 5.52
- pIC50 (GAK; cell material: Lysate mix): < 4.52
- pIC50 (UniProt Q9BUB5; cell material: Lysate mix): < 4.52
- pIC50 (MARK1): < 4.52
- pIC50 (UniProt Q9BQI3; cell material: Lysate mix): < 4.52
